Common to all, as to type: biochemical
For experiment [1], the target named is T1, Human Tyk2 kinase domain (Homo sapiens, UniProt P29597).
T1 construct: comprising amino acids 886 to 1187 with 10 additional histidine residues; 10xHis (histidine tag) (C, cleaved yes); made in house
T1 sequence (P29597 886-1187): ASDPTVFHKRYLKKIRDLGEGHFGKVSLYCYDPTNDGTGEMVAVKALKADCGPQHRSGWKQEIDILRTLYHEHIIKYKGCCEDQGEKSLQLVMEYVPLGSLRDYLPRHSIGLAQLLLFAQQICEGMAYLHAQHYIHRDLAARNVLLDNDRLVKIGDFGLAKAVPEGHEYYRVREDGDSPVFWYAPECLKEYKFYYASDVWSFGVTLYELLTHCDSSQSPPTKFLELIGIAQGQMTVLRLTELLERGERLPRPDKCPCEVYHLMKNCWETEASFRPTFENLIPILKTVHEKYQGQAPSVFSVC
The experiment is described as follows: Tyk2 Inhibition Assay (Omnia kinase fluorescence peptide substrate assay). To be noted: averaged IC50 ranges; assay of Example A; 10 μM (Km app) or 1 mM ATP, 2 nM Tyk2. The gist of the method: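 2 nM His-tag-cleaved kinase domain (aa 886–1187) with 8 μM Omnia Y12 peptide, 10 μM (Km app) or 1 mM ATP, pH 7.4 HEPES/10 mM MgCl2, 2% DMSO. Fluorescence (ex 360/em 485 nm) every 50 s for 45 min; IC50 from 4-parameter fit of POC, top dose 10 μM.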

In experiment [2] the target is T2, JAK1 (Homo sapiens, UniProt P23458).
T2 construct: purchased Invitrogen Corporation, Carlsbad, Calif; PV4775
The experiment is described as follows: JAK1 Inhibition Assay (Omnia kinase fluorescence peptide substrate assay). As to conditions: averaged IC50 ranges; assay of Example B; 40 μM (Km app) or 1 mM ATP, 15 nM JAK1.

In experiment [3] the target is T3, JAK2 (Homo sapiens, UniProt O60674).
T3 construct: purchased Invitrogen Corporation, Carlsbad, Calif; PV4288
The experiment is described as follows: JAK2 Inhibition Assay (Omnia kinase fluorescence peptide substrate assay). To be noted: averaged IC50 ranges; assay of Example C; 25 μM (Km app) or 1 mM ATP, 5 nM JAK2. Summed up: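 A 10-point, 3-fold compound series (top 10 μM, 2% DMSO) was tested against 5 nM JAK2 with 10 μM Omnia Y7 substrate and either 1 mM or 25 μM (Km app) ATP. Buffer: pH 7.4 HEPES, MgCl2, Triton X-100, DTT. Sox fluorescence was monitored kinetically for 45 min; IC50 is the concentration giving 50 POC on a 4-parameter fit.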

Experiment [4] has as its target T4, JAK3 (Homo sapiens, UniProt P52333).
T4 construct: purchased Invitrogen Corporation, Carlsbad, Calif; PV4080
T4 sequence (P52333 1-1124): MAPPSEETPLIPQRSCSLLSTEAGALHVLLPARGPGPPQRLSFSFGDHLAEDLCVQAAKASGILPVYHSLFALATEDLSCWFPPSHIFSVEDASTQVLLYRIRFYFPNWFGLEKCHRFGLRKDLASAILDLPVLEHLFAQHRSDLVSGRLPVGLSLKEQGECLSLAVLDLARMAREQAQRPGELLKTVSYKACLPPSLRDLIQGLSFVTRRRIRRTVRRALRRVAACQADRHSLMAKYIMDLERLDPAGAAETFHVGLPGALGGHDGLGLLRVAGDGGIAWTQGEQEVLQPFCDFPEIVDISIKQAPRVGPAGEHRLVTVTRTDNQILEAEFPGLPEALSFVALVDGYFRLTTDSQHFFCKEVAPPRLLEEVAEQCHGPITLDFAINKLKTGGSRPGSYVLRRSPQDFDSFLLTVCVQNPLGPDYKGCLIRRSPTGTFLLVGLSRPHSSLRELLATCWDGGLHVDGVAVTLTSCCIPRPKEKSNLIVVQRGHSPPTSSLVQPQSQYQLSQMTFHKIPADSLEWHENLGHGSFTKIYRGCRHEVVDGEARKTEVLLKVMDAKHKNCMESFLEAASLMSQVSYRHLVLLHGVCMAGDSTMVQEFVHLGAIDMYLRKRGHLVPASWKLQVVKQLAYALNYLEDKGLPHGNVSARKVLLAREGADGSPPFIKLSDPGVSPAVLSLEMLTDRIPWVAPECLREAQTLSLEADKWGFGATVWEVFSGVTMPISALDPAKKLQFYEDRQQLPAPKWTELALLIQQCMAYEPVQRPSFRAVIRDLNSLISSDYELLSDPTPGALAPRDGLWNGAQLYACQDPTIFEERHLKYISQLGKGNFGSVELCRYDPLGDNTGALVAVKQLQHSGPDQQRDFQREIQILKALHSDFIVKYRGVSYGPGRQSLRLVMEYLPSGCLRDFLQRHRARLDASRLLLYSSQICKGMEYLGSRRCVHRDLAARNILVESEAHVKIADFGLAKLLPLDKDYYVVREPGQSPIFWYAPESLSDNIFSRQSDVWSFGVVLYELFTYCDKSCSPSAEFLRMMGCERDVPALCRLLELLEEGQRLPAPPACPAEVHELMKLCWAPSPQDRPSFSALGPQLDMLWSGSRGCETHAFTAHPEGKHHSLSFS
The experiment is described as follows: JAK3 Inhibition Assay (Omnia kinase fluorescence peptide substrate assay). To be noted: averaged IC50 ranges; assay of Example D; 10 μM (Km app) or 1 mM ATP, 2.5 nM JAK3. The gist of the method: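 Kinase at 2.5 nM with 10 µM Omnia Y7 peptide and 10 µM (Km app) or 1 mM ATP in 25 mM HEPES pH 7.4, 10 mM MgCl2, 1 mM DTT, 0.01% Triton X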

This passage reports IC50 results from patent US8962596B2 (Array BioPharma Inc., priority 2010, dated 2015).

The term IC50 denotes the point on the concentration scale where inhibition reaches its midpoint.

T3 sequence (O60674 whole entry): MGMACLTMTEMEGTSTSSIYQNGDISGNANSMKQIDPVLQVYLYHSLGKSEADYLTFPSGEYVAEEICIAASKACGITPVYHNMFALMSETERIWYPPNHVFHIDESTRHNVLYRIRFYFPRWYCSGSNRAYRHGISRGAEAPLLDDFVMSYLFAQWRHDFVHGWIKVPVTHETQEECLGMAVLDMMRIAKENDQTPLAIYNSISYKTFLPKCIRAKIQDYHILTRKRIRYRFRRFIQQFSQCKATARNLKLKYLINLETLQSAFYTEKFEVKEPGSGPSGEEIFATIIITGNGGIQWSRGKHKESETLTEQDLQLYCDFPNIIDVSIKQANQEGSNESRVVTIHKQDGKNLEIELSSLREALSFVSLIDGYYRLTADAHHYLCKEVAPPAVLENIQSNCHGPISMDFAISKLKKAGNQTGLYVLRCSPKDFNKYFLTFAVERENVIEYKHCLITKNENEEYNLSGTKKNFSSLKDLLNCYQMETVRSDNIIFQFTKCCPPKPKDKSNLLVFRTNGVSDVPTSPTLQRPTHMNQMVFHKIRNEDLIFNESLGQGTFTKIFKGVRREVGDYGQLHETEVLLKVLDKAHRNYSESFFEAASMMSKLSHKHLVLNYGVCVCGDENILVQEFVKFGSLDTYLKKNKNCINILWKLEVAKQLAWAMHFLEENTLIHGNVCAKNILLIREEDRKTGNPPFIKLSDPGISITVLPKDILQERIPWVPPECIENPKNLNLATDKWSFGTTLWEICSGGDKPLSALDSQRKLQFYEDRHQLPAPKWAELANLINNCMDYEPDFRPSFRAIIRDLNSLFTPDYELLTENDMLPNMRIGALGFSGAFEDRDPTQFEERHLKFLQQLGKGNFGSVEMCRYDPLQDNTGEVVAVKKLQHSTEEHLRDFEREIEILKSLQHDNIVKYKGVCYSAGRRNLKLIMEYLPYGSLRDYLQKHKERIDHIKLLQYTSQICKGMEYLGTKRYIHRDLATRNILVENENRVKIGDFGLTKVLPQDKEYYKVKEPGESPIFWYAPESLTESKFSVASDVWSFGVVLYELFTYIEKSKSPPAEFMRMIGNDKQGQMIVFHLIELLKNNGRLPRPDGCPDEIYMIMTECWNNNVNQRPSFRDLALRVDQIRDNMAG
T2 sequence (P23458 whole entry): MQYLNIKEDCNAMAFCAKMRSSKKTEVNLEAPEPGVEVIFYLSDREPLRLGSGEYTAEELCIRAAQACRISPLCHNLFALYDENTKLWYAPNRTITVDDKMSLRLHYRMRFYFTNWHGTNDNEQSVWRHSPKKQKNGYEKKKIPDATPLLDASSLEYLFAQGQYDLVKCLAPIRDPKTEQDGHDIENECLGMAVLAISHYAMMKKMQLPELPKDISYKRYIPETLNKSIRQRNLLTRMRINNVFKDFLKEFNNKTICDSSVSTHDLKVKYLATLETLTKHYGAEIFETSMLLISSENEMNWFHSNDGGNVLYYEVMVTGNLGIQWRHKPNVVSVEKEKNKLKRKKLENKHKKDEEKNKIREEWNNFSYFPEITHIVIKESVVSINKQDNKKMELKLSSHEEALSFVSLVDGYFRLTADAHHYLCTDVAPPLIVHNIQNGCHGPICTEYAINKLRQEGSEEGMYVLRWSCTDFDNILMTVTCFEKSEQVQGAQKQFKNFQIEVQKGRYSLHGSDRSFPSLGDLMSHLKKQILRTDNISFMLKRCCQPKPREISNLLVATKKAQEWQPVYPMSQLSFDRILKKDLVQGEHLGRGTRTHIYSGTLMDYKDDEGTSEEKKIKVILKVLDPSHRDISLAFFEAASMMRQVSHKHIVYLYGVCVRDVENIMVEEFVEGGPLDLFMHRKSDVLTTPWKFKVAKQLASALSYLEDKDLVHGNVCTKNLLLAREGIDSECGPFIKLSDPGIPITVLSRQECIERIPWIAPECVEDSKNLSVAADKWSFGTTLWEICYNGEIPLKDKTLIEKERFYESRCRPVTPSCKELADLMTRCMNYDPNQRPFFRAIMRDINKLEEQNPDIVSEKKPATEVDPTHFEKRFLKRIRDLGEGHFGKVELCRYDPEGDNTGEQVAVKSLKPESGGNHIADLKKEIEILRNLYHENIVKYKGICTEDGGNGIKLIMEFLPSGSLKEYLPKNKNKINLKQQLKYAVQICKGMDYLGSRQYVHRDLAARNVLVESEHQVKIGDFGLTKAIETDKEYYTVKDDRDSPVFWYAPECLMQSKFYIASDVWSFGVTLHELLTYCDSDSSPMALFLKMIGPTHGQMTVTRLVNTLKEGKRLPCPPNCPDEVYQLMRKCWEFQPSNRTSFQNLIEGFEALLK

Turning to `N#CCC(C1CC1)n1cc(-c2nc(-c3cnn(CC(F)(F)F)c3)cc3nccn23)cn1` (stereo not shown) [Example 39, 3-cyclopropyl-3-(4-(7-(1-(2,2,2-trifluoroethyl)-1H-pyrazol-4-yl)imidazo[1,2-c]pyrimidin-5-yl)-1H-pyrazol-1-yl)propanenitrile], the IC50 in experiment [1] was less than 10 nM; in experiment [2], 10 to 100 nM; in experiment [3], 10 to 100 nM; in experiment [4], 100 to 1000 nM.

`CCn1cc(-c2cc3nccn3c(-c3cnn(C(CC#N)C4CC4)c3)n2)cn1` (stereo not shown) [Example 40, 3-cyclopropyl-3-(4-(7-(1-ethyl-1H-pyrazol-4-yl)imidazo[1,2-c]pyrimidin-5-yl)-1H-pyrazol-1-yl)propanenitrile]: the IC50 is less than 10 nM in experiment [1], 100 to 1000 nM in experiment [2], 10 to 100 nM in experiment [3] and 100 to 1000 nM in experiment [4].

For `CC(C)OCCn1cc(-c2cc3nccn3c(-c3cnn(C(CC#N)C4CC4)c3)n2)cn1` (stereo not shown) [Example 41, 3-cyclopropyl-3-(4-(7-(1-(2-isopropoxyethyl)-1H-pyrazol-4-yl)imidazo[1,2-c]pyrimidin-5-yl)-1H-pyrazol-1-yl]propanenitrile], the IC50 in experiment [1] was 10 to 100 nM; in experiment [2], 100 to 1000 nM; in experiment [3], 10 to 100 nM; in experiment [4] it was more than 1000 nM.

With `N#CCC(C1CC1)n1cc(-c2nc(-c3cnn(C4CCC4)c3)cc3nccn23)cn1` (stereo not shown) [Example 42, 3-(4-(7-(1-cyclobutyl-1H-pyrazol-4-yl)imidazo[1,2-c]pyrimidin-5-yl)-1H-pyrazol-1-yl)-3-cyclopropylpropanenitrile], the IC50 was less than 10 nM in experiment [1], 10 to 100 nM in experiment [2], 10 to 100 nM in experiment [3] and 100 to 1000 nM in experiment [4].

As for `N#CCC(C1CC1)n1cc(-c2nc(-c3cnco3)cc3nccn23)cn1` (stereo not shown) [Example 43, 3-cyclopropyl-3-(4-(7-(oxazol-5-yl)imidazo[1,2-c]pyrimidin-5-yl)-1H-pyrazol-1-yl)propanenitrile], the IC50 in experiment [1] was 10 to 100 nM; in experiment [2] it was more than 1000 nM; in experiment [3], 100 to 1000 nM; in experiment [4], more than 1000 nM.

Take `CN1CCN(CCn2cc(-c3cc4nccn4c(-c4cnn(C(CC#N)C5CC5)c4)n3)cn2)CC1` (stereo not shown) [Example 44, 3-cyclopropyl-3-(4-(7-(1-(2-(4-methylpiperazin-1-yl)ethyl)-1H-pyrazol-4-yl)imidazo[1,2-c]pyrimidin-5-yl)-1H-pyrazol-1-yl)propanenitrile]: the IC50 in experiment [1] was 10 to 100 nM; in experiment [2], 100 to 1000 nM; in experiment [3] it was 10 to 100 nM; in experiment [4], 100 to 1000 nM.

Regarding `Cc1nnc(-c2cc3nccn3c(-c3cnn(C(CC#N)C4CC4)c3)n2)s1` (stereo not shown) [Example 45, 3-Cyclopropyl-3-(4-(7-(5-methyl-1,3,4-thiadiazol-2-yl)imidazo[1,2-c]pyrimidin-5-yl)-1H-pyrazol-1-yl)propanenitrile], the IC50 was 100 to 1000 nM in experiment [1], more than 1000 nM in experiment [2], more than 1000 nM in experiment [3] and more than 1000 nM in experiment [4].

On to `Cc1cn(-c2cc3nccn3c(-c3cnn(C(CC#N)C4CC4)c3)n2)cn1` (stereo not shown) [Example 46, 3-Cyclopropyl-3-(4-(7-(4-methyl-1H-imidazol-1-yl)imidazo[1,2-c]pyrimidin-5-yl)-1H-pyrazol-1-yl)propanenitrile], for which the IC50 in experiment [1] was 10 to 100 nM; in experiment [2], more than 1000 nM; in experiment [3], 100 to 1000 nM; in experiment [4] it was more than 1000 nM.

For `N#CCC(C1CC1)n1cc(-c2nc(-c3cncs3)cc3nccn23)cn1` (stereo not shown) [Example 47, 3-Cyclopropyl-3-(4-(7-(thiazol-5-yl)imidazo[1,2-c]pyrimidin-5-yl)-1H-pyrazol-1-yl)propanenitrile], the IC50 was 10 to 100 nM in experiment [1], 100 to 1000 nM in experiment [2], 100 to 1000 nM in experiment [3] and more than 1000 nM in experiment [4].

In the case of `Cc1ncc(-c2cc3nccn3c(-c3cnn(C(CC#N)C4CC4)c3)n2)s1` (stereo not shown) [Example 48], the IC50 in experiment [1] was 10 to 100 nM; in experiment [2], 100 to 1000 nM; in experiment [3] it was 10 to 100 nM; in experiment [4], 100 to 1000 nM.

For `Cc1ccc(-c2cc3nccn3c(-c3cnn(C(CC#N)C4CC4)c3)n2)cn1` (stereo not shown) [Example 49, 3-Cyclopropyl-3-(4-(7-(6-methylpyridin-3-yl)imidazo[1,2-c]pyrimidin-5-yl)-1H-pyrazol-1-yl)propanenitrile], the IC50 in experiment [1] was 10 to 100 nM; in experiment [2], 100 to 1000 nM; in experiment [3], 100 to 1000 nM; in experiment [4] it was more than 1000 nM.

Turning to `Cc1cc(-c2cc3nccn3c(-c3cnn(C(CC#N)C4CC4)c3)n2)ccn1` (stereo not shown) [Example 50, 3-cyclopropyl-3-(4-(7-(2-methylpyridin-4-yl)imidazo[1,2-c]pyrimidin-5-yl)-1H-pyrazol-1-yl)propanenitrile], the IC50 in experiment [1] was 10 to 100 nM; in experiment [2], 100 to 1000 nM; in experiment [3], 100 to 1000 nM; in experiment [4], more than 1000 nM.

Consider `CN1CCN(c2ccc(-c3cc4nccn4c(-c4cnn(C(CC#N)C5CC5)c4)n3)cn2)CC1` (stereo not shown) [Example 51, 3-cyclopropyl-3-(4-(7-(6-(4-methylpiperazin-1-yl)pyridin-3-yl)imidazo[1,2-c]pyrimidin-5-yl)-1H-pyrazol-1-yl)propanenitrile], for which the IC50 in experiment [1] is less than 10 nM; in experiment [2] it was 100 to 1000 nM; in experiment [3], 10 to 100 nM; in experiment [4] it was 100 to 1000 nM.

`N#CCC(C1CC1)n1cc(-c2nc(-c3ccc4c(c3)CCNC4)cc3nccn23)cn1` (stereo not shown) [Example 52, 3-Cyclopropyl-3-(4-(7-(1,2,3,4-tetrahydroisoquinolin-6-yl)imidazo[1,2-c]pyrimidin-5-yl)-1H-pyrazol-1-yl)propanenitrile]: the IC50 lay within 10 to 100 nM in experiment [1], 10 to 100 nM in experiment [2], 10 to 100 nM in experiment [3] and 100 to 1000 nM in experiment [4].

With `CN1CCc2cc(-c3cc4nccn4c(-c4cnn(C(CC#N)C5CC5)c4)n3)ccc2C1` (stereo not shown) [Example 53, 3-Cyclopropyl-3-(4-(7-(2-methyl-1,2,3,4-tetrahydroisoquinolin-6-yl)imidazo[1,2-c]pyrimidin-5-yl)-1H-pyrazol-1-yl)propanenitrile], the IC50 in experiment [1] lay within 10 to 100 nM; in experiment [2], 10 to 100 nM; in experiment [3], 10 to 100 nM; in experiment [4], 100 to 1000 nM.

Consider `N#CCC(C1CC1)n1cc(-c2nc(-c3ccc4c(c3)CNCC4)cc3nccn23)cn1` (stereo not shown) [Example 54, 3-Cyclopropyl-3-(4-(7-(1,2,3,4-tetrahydroisoquinolin-7-yl)imidazo[1,2-c]pyrimidin-5-yl)-1H-pyrazol-1-yl)propanenitrile], for which the IC50 is less than 10 nM in experiment [1], 10 to 100 nM in experiment [2], 10 to 100 nM in experiment [3] and 100 to 1000 nM in experiment [4].
